Test results reported in ChEMBL document CHEMBL3120093 (J Med Chem, 2014).

How the values were obtained:
[1] = Drug uptake in rat liver at 5 mg/kg, po after 4 hrs; assay type: ADME, organism-based; parameters: dose 5 mg/kg, route oral; conditions: read-out: Drug uptake
[2] = Plasma concentration in rat at 5 mg/kg, po after 4 hrs; assay type: ADME, organism-based; parameters: dose 5 mg/kg, route oral
[3] = AUC in rat at 5 mg/kg, po after 4 hrs; assay type: ADME, organism-based; parameters: time < 4 hr, dose 5 mg/kg, route oral; conditions: plasma
[4] = Permeability of the compound at PH 7.4 by PAMPA; assay type: ADME; conditions: for Papp: read-out: permeability
[5] = AUC in rat at 5 mg/kg, po after 24 hrs; assay type: ADME, organism-based; parameters: time < 24 hr, dose 5 mg/kg, route oral; conditions: plasma
[6] = Plasma concentration in dog at […], po after 24 hrs; assay type: ADME, organism-based, Canis lupus familiaris; parameters: dose 2.3 mg/kg, route oral
[7] = Oral bioavailability in dog at […] after 24 hrs; assay type: ADME, organism-based, Canis lupus familiaris; conditions: in vivo
[8] = Plasma concentration in rat at 5 mg/kg, po after 24 hrs; assay type: ADME, organism-based; parameters: dose 5 mg/kg, route oral
[9] = AUC in dog at […], po after 24 hrs; assay type: ADME, organism-based, Canis lupus familiaris; parameters: time < 24 hr, dose 2.3 mg/kg, route oral; conditions: plasma
[10] = Oral bioavailability in rat at 5 mg/kg after 24 hrs; assay type: ADME, organism-based; conditions: in vivo
[11] = Drug uptake in rat liver at 5 mg/kg, po after 24 hrs; assay type: ADME, organism-based; parameters: dose 5 mg/kg, route oral; conditions: read-out: Drug uptake
[12] = Volume of distribution in dog at 1 mg/kg, iv after 24 hrs; assay type: ADME, organism-based, Canis lupus familiaris; parameters: dose 1 mg/kg, route intravenous; conditions: in vivo
[13] = Volume of distribution in mouse at 5 mg/kg, iv after 24 hrs; assay type: ADME, organism-based; parameters: dose 5 mg/kg, route intravenous; conditions: in vivo
[14] = Drug uptake in mouse liver at 20 mg/kg, po after 24 hrs; assay type: ADME, organism-based; parameters: dose 20 mg/kg, route oral; conditions: read-out: Drug uptake
[15] = Half life in rat at 2 mg/kg, iv after 24 hrs; assay type: ADME, organism-based; parameters: dose 2 mg/kg, route intravenous; conditions: in vivo
[16] = Half life in mouse at 5 mg/kg, iv after 24 hrs; assay type: ADME, organism-based; parameters: dose 5 mg/kg, route intravenous; conditions: in vivo
[17] = Volume of distribution in rat at 2 mg/kg, iv after 24 hrs; assay type: ADME, organism-based; parameters: dose 2 mg/kg, route intravenous; conditions: in vivo
[18] = Plasma concentration in dog at 3 mg/kg, po after 24 hrs; assay type: ADME, organism-based, Canis lupus familiaris; parameters: dose 3 mg/kg, route oral
[19] = Plasma concentration in mouse at 20 mg/kg, po after 24 hrs; assay type: ADME, organism-based; parameters: dose 20 mg/kg, route oral
[20] = AUC in mouse at 20 mg/kg, po after 24 hrs; assay type: ADME, organism-based; parameters: time < 24 hr, dose 20 mg/kg, route oral; conditions: plasma
[21] = Clearance in mouse at 5 mg/kg, iv after 24 hrs; assay type: ADME, organism-based; parameters: dose 5 mg/kg, route intravenous; conditions: in vivo
[22] = AUC in dog at 3 mg/kg, po after 24 hrs; assay type: ADME, organism-based, Canis lupus familiaris; parameters: time < 24 hr, dose 3 mg/kg, route oral; conditions: plasma
[23] = Clearance in rat at 2 mg/kg, iv after 24 hrs; assay type: ADME, organism-based; parameters: dose 2 mg/kg, route intravenous; conditions: in vivo
[24] = Oral bioavailability in mouse at 20 mg/kg after 24 hrs; assay type: ADME, organism-based; conditions: plasma
[25] = Oral bioavailability in dog at 3 mg/kg after 24 hrs; assay type: ADME, organism-based, Canis lupus familiaris; conditions: plasma
[26] = Clearance in rat at 2 mg/kg, iv after 4 hrs; assay type: ADME, organism-based; parameters: dose 2 mg/kg, route intravenous; conditions: in vivo
[27] = Oral bioavailability in dog at 3.5 mg/kg after 24 hrs; assay type: ADME, organism-based, Canis lupus familiaris; conditions: in vivo
[28] = AUC in dog at 3.5 mg/kg, po after 24 hrs; assay type: ADME, organism-based, Canis lupus familiaris; parameters: time < 24 hr, dose 3.5 mg/kg, route oral; conditions: plasma
[29] = Plasma concentration in dog at 3.5 mg/kg, po after 24 hrs; assay type: ADME, organism-based, Canis lupus familiaris; parameters: dose 3.5 mg/kg, route oral

concentration at 4 h [1] [nM] | concentration at 4 h [2] [nM] | AUC at 4 h [3] [µM·h] | Papp [4] [×10⁻⁶ cm/s] | SMILES | further results
134 | 57 | 0.281 | 20.7 | COC(=O)N[C@@H](C)C(=O)N1CCC[C@H]1c1ncc(-c2ccc(-c3ccc(-c4cnc([C@@H]5CCCN5C(=O)[C@H](C)NC(=O)OC)[nH]4)cc3)cc2)[nH]1 | 
 |  |  | 38.4 | CC[C@H](NC(=O)OC)C(=O)N1CCC[C@H]1c1ncc(-c2ccc(-c3ccc(-c4cnc([C@@H]5CCCN5C(=O)[C@H](CC)NC(=O)OC)[nH]4)cc3)cc2)[nH]1 | 
 |  |  | 4.7 | COC(=O)N[C@H](C)C(=O)N1CCC[C@H]1c1ncc(-c2ccc(-c3ccc(-c4cnc([C@@H]5CCCN5C(=O)[C@@H](C)NC(=O)OC)[nH]4)cc3)cc2)[nH]1 | 
80 | 0.7 | 0.005 | 3.6 | O=C([C@@H](c1ccccc1)N1CCCC1)N1CCC[C@H]1c1ncc(-c2ccc(-c3ccc(-c4cnc([C@@H]5CCCN5C(=O)[C@@H](c5ccccc5)N5CCCC5)[nH]4)cc3)cc2)[nH]1 | 
 |  |  | 50 | COC(=O)N[C@H](C(=O)N1CCC[C@H]1c1ncc(-c2ccc(-c3ccc(-c4cnc([C@@H]5CCCN5C(=O)[C@@H](NC(=O)OC)C5CC5)[nH]4)cc3)cc2)[nH]1)C1CC1 | 
 |  |  | 33.7 | CCN(CC)[C@@H](C(=O)N1CCC[C@H]1c1ncc(-c2ccc(-c3ccc(-c4cnc([C@@H]5CCCN5C(=O)[C@@H](c5ccccc5)N5CCCCC5)[nH]4)cc3)cc2)[nH]1)c1ccccc1 | 
 |  |  | 0.2 | COC(=O)NC1(C(=O)N2CCC[C@H]2c2ncc(-c3ccc(-c4ccc(-c5cnc([C@@H]6CCCN6C(=O)C6(NC(=O)OC)CC6)[nH]5)cc4)cc3)[nH]2)CC1 | 
2240 | 661 | 2.18 | 49.6 | COC(=O)N[C@H](C(=O)N1CCC[C@H]1c1nc(-c2ccc(-c3ccc(-c4c[nH]c([C@@H]5CCCN5C(=O)[C@@H](NC(=O)OC)C(C)C)n4)cc3)cc2)c[nH]1)C(C)C | AUC at 24 h [5]: 4.8 µM·h; concentration at 24 h [6]: 26 nM; bioavailability at 24 h [7]: 108%; concentration at 24 h [8]: 18 nM; AUC at 24 h [9]: 11 µM·h; bioavailability [10]: 50%; concentration at 24 h [11]: 103 nM
 |  |  | 2.6 | COC(=O)NC(C)(C)C(=O)N1CCC[C@H]1c1ncc(-c2ccc(-c3ccc(-c4cnc([C@@H]5CCCN5C(=O)C(C)(C)NC(=O)OC)[nH]4)cc3)cc2)[nH]1 | 
 |  |  | 1.2 | COC(=O)N[C@@H](C(=O)N1CCC[C@H]1c1ncc(-c2ccc(-c3ccc(-c4cnc([C@@H]5CCCN5C(=O)CNC(C)=O)[nH]4)cc3)cc2)[nH]1)c1ccccc1 | 
 |  |  | 45.1 | CCOC(=O)N[C@@H](C)C(=O)N1CCC[C@H]1c1ncc(-c2ccc(-c3ccc(-c4cnc([C@@H]5CCCN5C(=O)[C@H](C)NC(=O)OCC)[nH]4)cc3)cc2)[nH]1 | 
 |  |  | 2.8 | COC(=O)N[C@@H](C(=O)N1CCC[C@H]1c1ncc(-c2ccc(-c3ccc(-c4cnc([C@@H]5CCCN5C(=O)[C@@H](C)NC(C)=O)[nH]4)cc3)cc2)[nH]1)c1ccccc1 | 
 |  |  | 17.7 | COC(=O)N[C@@H](C(=O)N1CCC[C@H]1c1ncc(-c2ccc(-c3ccc(-c4cnc([C@@H]5CCCN5C(=O)[C@H](NC(=O)OC)c5ccccc5)[nH]4)cn3)cc2)[nH]1)c1ccccc1 | 
 |  |  | 17.9 | COC(=O)N[C@@H](C(=O)N1CCC[C@H]1c1ncc(-c2ccc(-c3ccc(-c4cnc([C@@H]5CCCN5C(=O)[C@H](NC(=O)OC)c5ccccc5)[nH]4)nc3)cc2)[nH]1)c1ccccc1 | 
 |  |  | 36.3 | COC(=O)N[C@@H](C)C(=O)N1CCC[C@H]1c1ncc(-c2ccc(-c3ccc(-c4cnc([C@@H]5CCCN5C(=O)[C@H](NC(=O)OC)c5ccccc5)[nH]4)cc3)cc2)[nH]1 | 
563 | 27 | 0.062 | 20 | CN(C)[C@@H](C(=O)N1CCC[C@H]1c1ncc(-c2ccc(-c3ccc(-c4cnc([C@@H]5CCCN5C(=O)[C@@H]5CCCO5)[nH]4)cc3)cc2)[nH]1)c1ccccc1 | 
 |  |  | 15.8 | CN(C)[C@@H](C(=O)N1CCC[C@H]1c1ncc(-c2ccc(-c3ccc(-c4cnc([C@@H]5CCCN5C(=O)[C@H]5CCCO5)[nH]4)cc3)cc2)[nH]1)c1ccccc1 | Vd [12]: 82 L/kg; Vd [13]: 14 L/kg; concentration at 24 h [14]: 539 nM; half-life [15]: 14 h; half-life [16]: 7.8 h; Vd [17]: 60 L/kg; concentration at 24 h [18]: 30 nM; concentration at 24 h [19]: 25 nM; AUC at 24 h [20]: 1.42 µM·h; clearance [21]: 18 mL/min/kg; AUC at 24 h [22]: 0.436 µM·h; clearance [23]: 57 mL/min/kg; bioavailability [24]: 6%; bioavailability [25]: 60%
1090 | 6 | 0.013 | 25.5 | CCN(CC)[C@@H](C(=O)N1CCC[C@H]1c1ncc(-c2ccc(-c3ccc(-c4cnc([C@@H]5CCCN5C(=O)[C@@H](c5ccccc5)N(CC)CC)[nH]4)cc3)cc2)[nH]1)c1ccccc1 | clearance [26]: 4 mL/min/kg
453 | 121 | 0.472 | 27.5 | COC(=O)N[C@H](C(=O)N1CCC[C@H]1c1ncc(-c2ccc(-c3ccc(-c4cnc([C@@H]5CCCN5C(=O)[C@@H](NC(=O)OC)[C@@H](C)OC)[nH]4)cc3)cc2)[nH]1)[C@@H](C)OC | 
1830 | 30 | 0.049 | 25.3 | CCN(CC)[C@@H](C(=O)N1CCC[C@H]1c1ncc(-c2ccc(-c3ccc(-c4cnc([C@@H]5CCCN5C(=O)[C@H](C)NC(=O)OC)[nH]4)cc3)cc2)[nH]1)c1ccccc1 | AUC at 24 h [5]: 0.165 µM·h; bioavailability [27]: 66%; bioavailability [10]: 3.6%; concentration at 24 h [11]: 178 nM; AUC at 24 h [28]: 1.2 µM·h; concentration at 24 h [29]: 9 nM
 |  |  | 10 | COC(=O)N[C@@H](C(=O)N1CCC[C@H]1c1ncc(-c2ccc(-c3ccc(-c4cnc([C@@H]5CCCN5C(=O)[C@H](C)NC(C)=O)[nH]4)cc3)cc2)[nH]1)c1ccccc1 | 
 |  |  |  | O=C(C(c1ccccc1)N1CC[C@H](F)C1)N1CCC[C@H]1c1ncc(-c2ccc(-c3ccc(-c4cnc([C@@H]5CCCN5C(=O)C(c5ccccc5)N5CC[C@H](F)C5)[nH]4)cc3)cc2)[nH]1 (stereo in doubt; 21) | permeability [4]: impermeable
239 | 11 | 0.054 | 34.9 | O=C([C@@H](c1ccccc1)N1CCOCC1)N1CCC[C@H]1c1ncc(-c2ccc(-c3ccc(-c4cnc([C@@H]5CCCN5C(=O)[C@@H](c5ccccc5)N5CCOCC5)[nH]4)cc3)cc2)[nH]1 | 
1980 | 2 | 0.006 | 10.6 | CCN(C)[C@@H](C(=O)N1CCC[C@H]1c1ncc(-c2ccc(-c3ccc(-c4cnc([C@@H]5CCCN5C(=O)[C@@H](c5ccccc5)N(C)CC)[nH]4)cc3)cc2)[nH]1)c1ccccc1 | clearance [26]: 88 mL/min/kg
26.2 |  |  | 16.4 | COC(=O)NCC(=O)N1CCC[C@H]1c1ncc(-c2ccc(-c3ccc(-c4cnc([C@@H]5CCCN5C(=O)[C@H](NC(=O)OC)c5ccccc5)[nH]4)cc3)cc2)[nH]1 | 
 |  |  | 50 | COC(=O)N[C@@H](C(=O)N1CCC[C@H]1c1ncc(-c2ccc(-c3ccc(-c4cnc([C@@H]5CCCN5C(C)=O)[nH]4)cc3)cc2)[nH]1)c1ccccc1 | 
1230 | 13 | 0.034 | 70.6 | CCN(CC)[C@@H](C(=O)N1CCC[C@H]1c1ncc(-c2ccc(-c3ccc(-c4cnc([C@@H]5CCCN5C(=O)[C@@H](NC(=O)OC)C(C)C)[nH]4)cc3)cc2)[nH]1)c1ccccc1 | 
471 |  |  | 36.3 | CC[C@H](NC(=O)OC)C(=O)N1CCC[C@H]1c1ncc(-c2ccc(-c3ccc(-c4cnc([C@@H]5CCCN5C(=O)[C@@H](c5ccccc5)N(CC)CC)[nH]4)cc3)cc2)[nH]1 | bioavailability [10]: 4.3%; concentration at 24 h [11]: 132 nM
802 | 27 | 0.127 | 48 | COC(=O)N[C@@H](C(=O)N1CCC[C@H]1c1ncc(-c2ccc(-c3ccc(-c4cnc([C@@H]5CCCN5C(=O)[C@@H]5CCCO5)[nH]4)cc3)cc2)[nH]1)c1ccccc1 | 
 |  |  | 18.6 | COC(=O)N[C@@H](C(=O)N1CCC[C@H]1c1ncc(-c2ccc(-c3ncc(-c4cnc([C@@H]5CCCN5C(=O)[C@H](NC(=O)OC)c5ccccc5)[nH]4)cn3)cc2)[nH]1)c1ccccc1 | AUC at 24 h [5]: 0.021 µM·h; half-life [15]: 1.7 h; Vd [17]: 1.7 L/kg; bioavailability [10]: 0.5%; clearance [23]: 36 mL/min/kg
